Test results reported in patent US11180462B2, “Microbiocidal oxadiazole derivatives” (SYNGENTA PARTICIPATIONS AG, priority 2015, dated 2021).

How the values were obtained:
[1] = test system: Puccinia recondita f. Sp. Tritici; assay: Fungicidal activity against Puccinia recondita f. sp. tritici / wheat / leaf disc preventative (brown rust); assay type: in vivo; details: foliar, 200 ppm in the applied formulation, wheat leaf segments, preventative, compared to untreated control leaf disks, read-out: disease control
How it was run: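 Preventative leaf-segment test, wheat cv. Kanzler on water agar. Spray compound at 200 ppm, inoculate with spores 1 day later; 19° C., 75% rh, 12/12 h light. Read-out: % disease control vs untreated, 7 to 9 days after application.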

[2] = test system: Puccinia recondita f. Sp. Tritici; assay: Fungicidal activity against Puccinia recondita f. sp. tritici / wheat / leaf disc curative (brown rust); assay type: in vivo; details: foliar, 24 h, 200 ppm in the applied formulation, wheat leaf segments, curative (applied 1 day after inoculation), compared to untreated control leaf disks, read-out: disease control
How it was run: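 Curative test on wheat leaf segments (cv. Kanzler) on agar, inoculated with spore suspension and held dark at 19° C, 75% RH; formulated compound in water applied 1 day after inoculation. Incubated at 19° C, 75% RH, 12 h light/12 h dark; percent disease control versus untreated scored 6 to 8 days after application.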

[3] = test system: Phakopsora Pachyrhizi; assay: Fungicidal activity against Phakopsora pachyrhizi / soybean / leaf disc preventative (Asian soybean rust); assay type: in vivo; details: foliar, 200 ppm in the applied formulation, soybean leaf disks, compared to untreated control leaf disks, read-out: disease control
How it was run: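 Preventative soybean leaf-disc test: discs on water agar sprayed with diluted formulated compound, inoculated one day later with spores on the lower surface. Held 24–36 h dark at 20°C, 75% rh, then 12 h light/day; percent disease control versus untreated discs scored 12–14 days after application.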

[4] = test system: Glomerella lagenarium (Colletotrichum lagenarium); assay: Fungicidal activity against Glomerella lagenarium (Colletotrichum lagenarium) liquid culture / cucumber / preventative (anthracnose); assay type: cell-based; details: Colletotrichum orbiculare; 20 ppm in the applied formulation; liquid culture (PDB), growth inhibition measured photometrically after 3 to 4 days; compared to untreated control; read-out: disease control
How it was run: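 Photometric read-out of fungal growth after 2–7 days, expressed as percent antifungal activity versus untreated check. Cryo-stored conidia in PDB; compound at 20 ppm; dark, 24 °C, 96% RH.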

COCCCC(=O)N(Cc1ccc(-c2noc(C(F)(F)F)n2)cc1)OC [Compound 1.59, N,4-dimethoxy-N-[[4-(5-(trifluoromethyl)-1,2,4-oxadiazol-3-yl]phenyl]methyl]-butanamide]
≥ 80%: pest or weed control at 200 ppm [1] | pest or weed control at 200 ppm [2] | pest or weed control at 200 ppm [3] | inhibition of growth at 20 ppm [4]

CON(Cc1ccc(-c2noc(C(F)(F)F)n2)cc1)C(=O)CC1CC1(F)F (stereo not shown) [Compound 1.64, 2-(2.2-difluorocyclopropyl)-N-methoxy-N-[[4-[5-(trifluoromethyl)-1,2,4-oxadiazol-3-yl]phenyl]methyl]-acetamide]
≥ 80%: pest or weed control at 200 ppm [1] | pest or weed control at 200 ppm [2] | pest or weed control at 200 ppm [3] | inhibition of growth at 20 ppm [4]

C#CCOC(=O)NC(C(=O)N(Cc1ccc(-c2noc(C(F)(F)F)n2)cc1)OC)C(C)C (stereo not shown) [Compound 1.77, prop-2-ynyl N-[1-[methoxy-[[4-[5-(trifluoromethyl)-1,2,4-oxadiazol-3-yl]phenyl]methyl]carbamoyl]-2-methyl-propyl]carbamate]
≥ 80%: pest or weed control at 200 ppm [1] | pest or weed control at 200 ppm [2] | pest or weed control at 200 ppm [3] | inhibition of growth at 20 ppm [4]

COC(C)C(=O)N(Cc1ccc(-c2noc(C(F)(F)F)n2)cc1)OC (stereo not shown) [Compound 1.81, N,2-dimethoxy-N-[[4-[5-(trifluoromethyl)-1,2,4-oxadiazol-3-yl]phenyl]methyl]-propanamide]
≥ 80%: pest or weed control at 200 ppm [1] | pest or weed control at 200 ppm [2] | pest or weed control at 200 ppm [3] | inhibition of growth at 20 ppm [4]

O=C(N(Cc1ccc(-c2noc(C(F)(F)F)n2)cc1)C1CC1)C1(C(F)(F)F)CC1 [Compound 1.83, N-cyclopropyl-1-(trifluoromethyl)-N-[[4-[5-(trifluoromethyl)-1,2,4-oxadiazol-3-yl]phenyl]methyl]-cyclopropane-carboxamide]
≥ 80%: pest or weed control at 200 ppm [1] | pest or weed control at 200 ppm [2] | pest or weed control at 200 ppm [3] | inhibition of growth at 20 ppm [4]

C#CCCC(=O)N(Cc1ccc(-c2noc(C(F)(F)F)n2)cc1)C1CC1 [Compound 1.86, N-cyclopropyl-N-[[4-[5-(trifluoromethyl)-1,2,4-oxadiazol-3-yl]phenyl]methyl]-pent-4-ynamide]
≥ 80%: pest or weed control at 200 ppm [1] | pest or weed control at 200 ppm [2] | pest or weed control at 200 ppm [3] | inhibition of growth at 20 ppm [4]

CC(C)C(=O)N(Cc1ccc(-c2noc(C(F)(F)F)n2)cc1)C1CC1 [Compound 1.87, N-cyclopropyl-2-methyl-N-[[4-[5-(trifluoromethyl)-1,2,4-oxadiazol-3-yl]phenyl]methyl]-propanamide]
≥ 80%: pest or weed control at 200 ppm [1] | pest or weed control at 200 ppm [2] | pest or weed control at 200 ppm [3] | inhibition of growth at 20 ppm [4]

O=C(C1CC1(F)F)N(Cc1ccc(-c2noc(C(F)(F)F)n2)cc1)C1CC1 (stereo not shown) [Compound 1.89, N-cyclopropyl-2,2-difluoro-N-[[4-[5-(trifluoromethyl)-1,2,4-oxadiazol-3-yl]phenyl]methyl]-cyclopropane-carboxamide]
≥ 80%: pest or weed control at 200 ppm [1] | pest or weed control at 200 ppm [2] | pest or weed control at 200 ppm [3] | inhibition of growth at 20 ppm [4]

C=CCCC(=O)N(Cc1ccc(-c2noc(C(F)(F)F)n2)cc1)C1CC1 [Compound 1.91, N-cyclopropyl-N-[[4-[5-(trifluoromethyl)-1,2,4-oxadiazol-3-yl]phenyl]methyl]-pent-4-enamide]
≥ 80%: pest or weed control at 200 ppm [1] | pest or weed control at 200 ppm [2] | pest or weed control at 200 ppm [3] | inhibition of growth at 20 ppm [4]

O=C(N(Cc1ccc(-c2noc(C(F)(F)F)n2)cc1)C1CC1)C1(C(F)(F)F)CCC1 [Compound 1.92, N-cyclopropyl-1-(trifluoromethyl)-N-[[4-[5-(trifluoromethyl)-1,2,4-oxadiazol-3-yl]phenyl]methyl]-cyclobutane-carboxamide]
≥ 80%: pest or weed control at 200 ppm [1] | pest or weed control at 200 ppm [2] | pest or weed control at 200 ppm [3] | inhibition of growth at 20 ppm [4]
